Key:
[1] = target: HLA-A*02:01 (Homo sapiens, UniProt P04439, D140Y/D185E/D98H/E176V/E277Q/G131W/G231S/I119V/I121R/I166T/I218V/L300P/L318F/N151K/N90K/P208A/P217A/Q86G/Q94H/R138H/R169H/T345S); assay: MHC binding assay: UV-ligand exchange with β2m ELISA; conditions: binding of HLA-class I restricted peptides to HLA-A*02:01
Description: Candidate peptides for T cell based therapies according to the present invention were further tested for their MHC binding capacity (affinity). The individual peptide-MHC complexes were produced by UV-ligand exchange, where a UV-sensitive peptide is cleaved upon UV-irradiation, and exchanged with the peptide of interest as analyzed. Only peptide candidates that can effectively bind and stabilize the peptide-receptive MHC molecules prevent dissociation of the MHC complexes. To determine the yield of the exchange reaction, an ELISA was performed based on the detection of the light chain (β2m) of stabilized MHC complexes. The assay was performed as generally described in Rodenko et al. (Rodenko et al., 2006).
96 well MAXISorp plates (NUNC) were coated over night with 2 ug/ml streptavidin in PBS at room temperature, washed 4× and blocked for 1 h at 37° C. in 2% BSA containing blocking buffer. Refolded HLA-A*02:01/MLA-001 monomers served as standards, covering the range of 15-500 ng/ml. Peptide-MHC monomers of the UV-exchange reaction were diluted 100-fold in blocking buffer. Samples were incubated for 1 h at 37° C., washed four times, incubated with 2 ug/ml HRP conjugated anti-β2m for 1 h at 37° C., washed again and detected with TMB solution that is stopped with […]. Absorption was measured at 450 nm. Candidate peptides that show a high exchange yield (preferably higher than 50%, most preferred higher than 75%) are generally preferred for a generation and production of antibodies or fragments thereof, and/or T cell receptors or fragments thereof, as they show sufficient avidity to the MHC molecules and prevent dissociation of the MHC complexes.

[2] = tested on: CD8+ T cells; assay: In vitro T-cell priming assay with aAPCs loaded with peptide/MHC complexes and anti-CD28 antibody, pMHC multimer readout; type: cell-based, human; conditions: for Wells positive [%]: percentage of positive wells among evaluable, HLA-A*02 restricted peptides; for Donors: percentage of positive donors; for Donors / Wells: HLA-A*02 healthy donors, three stimulation cycles; for Wells: percentage of positive wells
Description: In order to obtain information regarding the immunogenicity of the TUMAPs of the present invention, the inventors performed investigations using an in vitro T-cell priming assay based on repeated stimulations of CD8+ T cells with artificial antigen presenting cells (aAPCs) loaded with peptide/MHC complexes and anti-CD28 antibody.
In order to perform in vitro stimulations by artificial antigen presenting cells loaded with peptide-MHC complex (pMHC) and anti-CD28 antibody, the inventors first isolated CD8+ T cells from fresh HLA-A*02 leukapheresis products via positive selection using CD8 microbeads (Miltenyi Biotech, Bergisch-Gladbach, Germany) of healthy donors obtained from the University clinics Mannheim, Germany, after informed consent.
PBMCs and isolated CD8+ lymphocytes were incubated in T-cell medium (TCM) until use consisting of RPMI-Glutamax (Invitrogen, Karlsruhe, Germany) supplemented with 10% heat inactivated human AB serum (PAN-Biotech, Aidenbach, Germany), 100 U/ml Penicillin/100 μg/ml Streptomycin (Cambrex, Cologne, Germany), 1 mM sodium pyruvate (CC Pro, Oberdorla, Germany), 20 μg/ml Gentamycin (Cambrex). 2.5 ng/ml IL-7 (PromoCell, Heidelberg, Germany) and 10 U/ml IL-2 (Novartis Pharma, Nürnberg, Germany) were also added to the TCM at this step.
Generation of pMHC/anti-CD28 coated beads, T-cell stimulations and readout was performed in a highly defined in vitro system using four different pMHC molecules per stimulation condition and 8 different pMHC molecules per readout condition.
The purified co-stimulatory mouse IgG2a anti human CD28 Ab 9.3 (Jung et al., 1987) was chemically biotinylated using Sulfo-N-hydroxysuccinimidobiotin as recommended by the manufacturer (Perbio, Bonn, Germany). Beads used were 5.6 μm diameter streptavidin coated polystyrene particles (Bangs Laboratories, Illinois, USA).
pMHC used for positive and negative control stimulations were A*0201/MLA-001 (peptide […] (SEQ ID NO. 157) from modified Melan-A/MART-1) and A*0201/DDX5-001 ([…] from DDX5, SEQ ID NO. 158), respectively.
800.000 beads/200 μl were coated in 96-well plates in the presence of 4×12.5 ng different biotin-pMHC, washed and 600 ng biotin anti-CD28 were added subsequently in a volume of 200 μl. Stimulations were initiated in 96-well plates by co-incubating 1×10^6 CD8+ T cells with 2×10^5 washed coated beads in 200 μl TCM supplemented with 5 ng/ml IL-12 (PromoCell) for 3 days at 37° C. Half of the medium was then exchanged by fresh TCM supplemented with 80 U/ml IL-2 and incubating was continued for 4 days at 37° C. This stimulation cycle was performed for a total of three times. For the pMHC multimer readout using 8 different pMHC molecules per condition, a two-dimensional combinatorial coding approach was used as previously described (Andersen et al., 2012) with minor modifications encompassing coupling to 5 different fluorochromes. Finally, multimeric analyses were performed by staining the cells with Live/dead near IR dye (Invitrogen, Karlsruhe, Germany), CD8-FITC antibody clone SK1 (BD, Heidelberg, Germany) and fluorescent pMHC multimers. For analysis, a BD LSRII SORP cytometer equipped with appropriate lasers and filters was used. Peptide specific cells were calculated as percentage of total CD8+ cells. Evaluation of multimeric analysis was done using the FlowJo software (Tree Star, Oregon, USA). In vitro priming of specific multimer+CD8+ lymphocytes was detected by comparing to negative control stimulations.
Exemplary flow cytometry results after TUMAP-specific multimer staining for 2 peptides of the invention are shown in FIGS. 3A and 3B together with corresponding negative controls. Additional exemplary flow cytometry results after TUMAP-specific multimer staining for 3 peptides of the invention are shown in FIGS. 4A-4C together with corresponding negative controls.

Substance	Peptide exchange (MHC class I binding score, peptide exchange yield) [1]	Wells positive [%] [2]	Donors [2]	Wells [2]
1 (GLAGGFGGPGFPV; listed as Homo sapiens) [compound 1]	++++ (>75% = ++++)	+ (<20% = +)		
3 (SLYGLGGSKRISI; listed as Homo sapiens) [compound 3]	+++ (>50 = +++)	+ (<20% = +)		
8 (AQLNIGNVLPV; listed as Homo sapiens) [compound 8]	++++ (>75% = ++++)	+ (<20% = +)		
10 (TLWPATPPKA; listed as Homo sapiens) [compound 10]	+++ (>50 = +++)	+ (<20% = +)		
11 (VLFSSPPVI; listed as Homo sapiens) [compound 11]	++++ (>75% = ++++)	++ (20%-49% = ++)		
12 (TLTDEINFL; listed as Homo sapiens) [compound 12]	++++ (>75% = ++++)	+ (<20% = +)		
13 (SLVSYLDKV; listed as Homo sapiens) [compound 13]	++++ (>75% = ++++)	++ (20%-49% = ++)		
16 (ALKDSVQRA; listed as Homo sapiens) [compound 16]	+++ (>50 = +++)	+ (<20% = +)		
17 (SIWPALTQV; listed as Homo sapiens) [compound 17]	++++ (>75% = ++++)	++++ (>=70% = ++++)		
18 (YLYPDLSRL; listed as Homo sapiens) [compound 18]	++++ (>75% = ++++)	+ (<20% = +)		
19 (ALAKLLPLL; listed as Homo sapiens) [compound 19]	++++ (>75% = ++++)	++ (20%-49% = ++)		
20 (YLINEIDRIRA; listed as Homo sapiens) [compound 20]	++++ (>75% = ++++)	+ (<20% = +)		
26 (TLVDENQSWYL; listed as Homo sapiens) [compound 26]	+++ (>50 = +++)	++ (20%-49% = ++)		
28 (AVDPVSGSLYV; listed as Homo sapiens) [compound 28]	++++ (>75% = ++++)	+++ (50%-69% = +++)		
29 (RLLPDLDEV; listed as Homo sapiens) [compound 29]	++++ (>75% = ++++)	++ (20%-49% = ++)		
30 (TLASLGYAVV; listed as Homo sapiens) [compound 30]	+++ (>50 = +++)	+++ (50%-69% = +++)		
82 (VLDINDNPPV; listed as Homo sapiens) [compound 82]	+++ (>50 = +++)	+ (<20% = +)		

Substance	Peptide exchange (MHC class I binding score, peptide exchange yield) [1]	Wells positive [%] [2]	Donors [2]	Wells [2]
98 (SLYKGLLSV; listed as Homo sapiens) [compound 98]			++++ (>=70% = ++++)	++ (20%-49% = ++)
101 (GLLPSAESIKL; listed as Homo sapiens) [compound 101]			++++ (>=70% = ++++)	+ (<20% = +)
105 (STYGGGLSV; listed as Homo sapiens) [compound 105]			++++ (>=70% = ++++)	+ (<20% = +)
108 (SLYNLGGSKRISI; listed as Homo sapiens) [compound 108]			++++ (>=70% = ++++)	+ (<20% = +)
109 (KIQEILTQV; listed as Homo sapiens) [compound 109]			+++ (50%-69% = +++)	+ (<20% = +)
113 (NLMASQPQL; listed as Homo sapiens) [compound 113]			++++ (>=70% = ++++)	+++ (50%-69% = +++)
114 (VLVPYEPPQV; listed as Homo sapiens) [compound 114]			++++ (>=70% = ++++)	+ (<20% = +)
118 (TLLQEQGTKTV; listed as Homo sapiens) [compound 118]			++ (20%-49% = ++)	+ (<20% = +)
123 (LLSGDLIFL; listed as Homo sapiens) [compound 123]			++++ (>=70% = ++++)	++ (20%-49% = ++)
127 (SLFGKKYIL; listed as Homo sapiens) [compound 127]			++++ (>=70% = ++++)	++ (20%-49% = ++)
135 (GLFSQHFNL; listed as Homo sapiens) [compound 135]			++ (20%-49% = ++)	+ (<20% = +)
137 (GLAPFLLNAV; listed as Homo sapiens) [compound 137]			++++ (>=70% = ++++)	+ (<20% = +)
143 (YVYQNNIYL; listed as Homo sapiens) [compound 143]			++ (20%-49% = ++)	+ (<20% = +)
145 (LLYGKYVSV; listed as Homo sapiens) [compound 145]			++++ (>=70% = ++++)	++ (20%-49% = ++)
147 (ILMDPSPEYA; listed as Homo sapiens) [compound 147]			++++ (>=70% = ++++)	+++ (50%-69% = +++)
150 (ILAEEPIYIRV; listed as Homo sapiens) [compound 150]			++++ (>=70% = ++++)	+++ (50%-69% = +++)
154 (KMWEELPEVV; listed as Homo sapiens) [compound 154]			++++ (>=70% = ++++)	+ (<20% = +)

Source: patent US10688131B2, “Peptides and scaffolds for use in immunotherapy against head and neck squamous cell carcinoma and other cancers” (Immatics Biotechnologies GmbH, priority 2016, dated 2020)
